The text below walks through data of US12049642B2, “Corneal endothelial cells with increased cell density and compositions thereof” (Astellas Institute for Regenerative Medicine, priority 2011, dated 2024).

In one assay the test system is hESC-derived CEC. Briefly: Effect of ROCK inhibitor on harvested and replated hESC-derived CEC. The class given is cell-based, human. Set-up: key to O/N Confluent: +: “O/N confluent” indicates the confluence of cultured cells after overnight plating, reflecting the degree of cell survival and/or attachment.; −: “O/N confluent” indicates the confluence of cultured cells after overnight plating, reflecting the degree of cell survival and/or attachment; key to Morphology: a high quality polygonal/hexagonal cell shape (“++”); a polygonal/hexagonal shape (“+”); fibroblastic morphology (“−”); key to COL8A1 mRNA / AQP1 mRNA / SLC16A3 mRNA: expression (“+”); non-expression (“−”). The method, then: Expression of COL8A1 and SLC16A3 were elevated relative to hESC (FIGS. 17E-17F).
The harvested cells were further examined for morphology, ability to reestablished a confluent culture, and retaining expression of the CEC markers COL8A1, AQP1, and SLC16A by qPCR. […] Moreover, Maintenance with media containing ROCK inhibitor can help the cells maintain a high quality CEC morphology after harvesting and replating.
Rock inhibitor […] (Wako, cat #253-00513) was dissolved in distilled H2O to make a 10 mM stock solution and sterile filtered and aliquoted. Rock inhibitor aliquot was thawed and added fresh to media daily.
Cornea cells were grown as described in Example 2 and harvested by treatment with 0.25% Trypsin as described in Example 4 and replated, with variations (i.e., inclusion of ROCK inhibitor and/or ASC as described below).
After plating, cells were viewed to identify any morphological changes, and specifically whether they regained their polygonal/hexagonal shape, were a mixed population of polygonal and fibroblastic shape, or if they had turned fibroblastic.
Media was changed daily with fresh Rock inhibitor except for “Pretreatment” and “D1” paradigms. After 1 week of culture, RNA was collected and analyzed by QPCR for changes in COL8A1, AQP1, and SLC16A3 mRNA levels. The efficacy of the Rock inhibitor for harvesting cells were tested between 1-20 microM.
For the “Pretreatment” paradigm, CEC were produced as described in Example 2. The cornea media was removed and replaced with either 10 microM Rock or 10 microM Rock with 0.3 mM ASC-P2 (L ascorbic acid phosphate magnesium salt n-hydrate (Wako, cat #013-19641)) for 1 hour before harvesting. Cells were harvested using 0.25% trypsin as described above, however, no Rock inhibitor was added during harvesting.
For the “Rock overnight” paradigm, CEC were produced as described in Example 2, harvested with 0.25% trypsin as described above, and then plated overnight in the presence of 10 microM Rock inhibitor. The following morning, the media was removed, and no further Rock inhibitor was added to the media.
For the “Rock maintenance” paradigm, CEC were produced as described in Example 2, harvested using 0.25% trypsin as described above, and were maintained in Rock inhibitor added daily to fresh media.
For the “D1” paradigm, CEC were produced as described in Example 2, harvested using 0.25% trypsin as described above, and cultured in presence of Rock inhibitor for 1 week. Cornea cells were then grown for additional week in the presence or absence of Rock inhibitor, to determine whether the ROCK inhibitor contributed to the maintenance of their morphology.

A further assay relates to CEC. Kind of assay: ANGPL7 included in culture media during CEC differentiation. The class given is cell-based, human. The settings on record: in culture media in combination with DKK2 and PDGFB; methods of Example 1. The source says: Accordingly, ANGPL7 may optionally be used in the differentiation of corneal endothelial cells, for example by its inclusion in the culture during and/or after formation of corneal endothelial cells. ANGPL1-8 may be used in place of or in addition to ANGPL7.

The mark [1] stands for this setting: D1: factors in media for the first week after plating, thereafter omitted.

As to `C[C@@H](N)[C@H]1CC[C@H](C(=O)Nc2ccncc2)CC1` [Rock, (1R,4r)-4-((R)-1-aminoethyl)-N-(pyridin-4-yl)cyclohexanecarboxamide], the “morphology of the hESC CEC trypsinized and replated” value is “variable” in the assay on hESC-derived CEC (1 μM Rock inhibitor, FIG. 17A); “somewhat more uniform” in the assay on hESC-derived CEC (5 μM Rock inhibitor, FIG. 17B); “uniform and polygonal/hexagonal” with hESC-derived CEC (10 μM Rock inhibitor, FIG. 17C); “uniform and polygonal/hexagonal” in the assay on hESC-derived CEC (20 μM Rock inhibitor, FIG. 17D). Further, the “SLC16A3 expression compared to PD1T that has not been harvested” value is “unchanged” with hESC-derived CEC (20 μM Rock inhibitor, QPCR) and “upregulated” in the assay on hESC-derived CEC (1-10 μM Rock inhibitor, QPCR). In addition, the “O/N Confluent” value in the assay on hESC-derived CEC (1 microM (maint.), in media each day after plating) is “+”; with hESC-derived CEC (5 microM (maint.)) it was “+”; in the assay with hESC-derived CEC (10 microM (maint.), ASC 0.3 mM where added), “+”; in the assay with hESC-derived CEC (20 microM (maint.), ASC 0.3 mM where added), “+”; in the assay on hESC-derived CEC (setting [1]), “+”; in the assay with hESC-derived CEC (Pretreat: 10 microM Rock 1 hour before harvesting with 0.25% trypsin, ASC 0.3 mM where added), “−”. Besides, the “O/N Confluent” value in the assay with hESC-derived CEC (o/n: plated overnight with 10 microM Rock after harvest, ASC 0.3 mM where added) was “+”. For the same molecule, the “AQP1 mRNA” value in the assay with hESC-derived CEC (1 microM (maint.), QPCR) is on record as “+”; in the assay with hESC-derived CEC (5 microM (maint.), QPCR), “+”; in the assay with hESC-derived CEC (10 microM (maint.), QPCR), “+”; with hESC-derived CEC (20 microM (maint.), QPCR), “+”; in the assay with hESC-derived CEC (Pretreat, QPCR after 1 week), “+”; in the assay on hESC-derived CEC (o/n, QPCR after 1 week), “+”. Further, the “COL8A1 mRNA” value is on record as “+” in the assay on hESC-derived CEC (1 microM (maint.), QPCR); “+” in the assay on hESC-derived CEC (5 microM (maint.), QPCR); “+” with hESC-derived CEC (10 microM (maint.), QPCR); “+” with hESC-derived CEC (20 microM (maint.), QPCR); “+” with hESC-derived CEC (Pretreat, QPCR after 1 week); “+” with hESC-derived CEC (o/n, QPCR after 1 week). Further, the “SLC16A3 mRNA” value is listed as “+” in the assay on hESC-derived CEC (1 microM (maint.), QPCR); “+” in the assay with hESC-derived CEC (5 microM (maint.), QPCR); “+” in the assay on hESC-derived CEC (10 microM (maint.), QPCR); “+” with hESC-derived CEC (20 microM (maint.), QPCR); “+” in the assay with hESC-derived CEC (Pretreat, QPCR after 1 week); “+” in the assay with hESC-derived CEC (o/n, QPCR after 1 week). Also, the Morphology entry is “+” in the assay with hESC-derived CEC (1 microM (maint.), after 1 week in culture); “++” with hESC-derived CEC (5 microM (maint.), after 1 week in culture); “++” in the assay on hESC-derived CEC (10 microM (maint.), after 1 week in culture); “++” in the assay on hESC-derived CEC (20 microM (maint.), after 1 week in culture); “−” in the assay on hESC-derived CEC (setting [1]); “−” with hESC-derived CEC (Pretreat: 10 microM Rock 1 hour before harvesting, after 1 week in culture). The Morphology entry with hESC-derived CEC (o/n: plated overnight with 10 microM Rock, after 1 week in culture) is “+”. Also, the “COL8A1 expression compared to PD1T that has not been harvested” value in the assay with hESC-derived CEC (QPCR, FIG. 17E) is “relatively unchanged”. For the same molecule, the “cell uniformity and polygonal/hexagonal morphology” value in the assay on hESC-derived CEC (concentrations up to 20 micromolar, FIGS. 17A-17D) is “dose-responsive improvement”.

B1: ANGPL7: Angiopoietin-Like Protein 7, included in the culture media with DKK2 and PDGFB (protein, UniProt O43827 27-346, looked up)
Angiopoietin-related protein 7: QKLSKHKTPAQPQLKAANCCEEVKELKAQVANLSSLLSELNKKQERDWVSVVMQVMELESNSKRMESRLTDAESKYSEMNNQIDIMQLQAAQTVTQTSADAIYDCSSLYQKNYRISGVYKLPPDDFLGSPELEVFCDMETSGGGWTIIQRRKSGLVSFYRDWKQYKQGFGSIRGDFWLGNEHIHRLSRQPTRLRVEMEDWEGNLRYAEYSHFVLGNELNSYRLFLGNYTGNVGNDALQYHNNTAFSTKDKDNDNCLDKCAQLRKGGYWYNCCTDSNLNGVYYRLGEHNKHLDGITWYGWHGSTYSLKRVEMKIRPEDFKP
Consider B1, for which the “packing and morphology of the resulting CEC” value in the assay on CEC was “tighter packing and more hexagonal morphology”.
